pIC50: −log10 of the molar value. Where “and” joins values, the source holds several entries; their conditions need not be identical. Identical values can stand only once. Like-named read-outs stand apart in the source and are kept apart here.
Columns and labels:
cyclin KeGFP = test: Cyclin KeGFP reporter system (eGFP/mCherry MFI by flow cytometry); assay type: cell-based, H. sapiens; conditions: OCI-AML5 G7 clone, 3 h, 10 μM; normalized to DMSO (=100)
Summary of the method: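 OCI-AML5 clone G7 carrying lentiviral cyclin KeGFP/mCherry reporter. eGFP and mCherry geometric MFI measured by flow cytometry; eGFP/mCherry ratio normalized to DMSO-treated cells.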

[1] = test system: OCI-AML5 cells expressing shRNA targeting CUL4A or CUL4B; test: Dose response in OCI-AML5 expressing shRNAs targeting CUL4A, CUL4B or control; assay type: cell-based, H. sapiens; conditions: OCI-AML5, 4 days
primary AML specimens = test: Dose-response assays in primary AML specimens (6 days, CellTiterGlo); assay type: cell-based, human; conditions: Homo sapiens, 144 h, 6 days, read-out: IC50
Summary of the method: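 Primary AML cells in IMDM/15% BIT with SCF, FLT3L, IL3, G-CSF, SR1 and UM729 were exposed to 8-point 1:4 dilutions (10 μM to 0.5 nM) for 6 days. Viability came from CellTiterGlo luminescence, with % inhibition versus DMSO (0.1%) fitted by nonlinear regression.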

CDK12/Cyclin K = target: T1, CDK12/Cyclin K (Homo sapiens, UniProt Q9NYV4); test: CDK12/CyclinK in vitro kinase assay (BPS kit, Kinase Glo MAX); assay type: biochemical; conditions: for in vitro inhibition of CDK12/Cyclin K activity: in % (unit assumed)
T1 construct: purchased BPS Bioscience 78298
T1 sequence (Q9NYV4 whole entry): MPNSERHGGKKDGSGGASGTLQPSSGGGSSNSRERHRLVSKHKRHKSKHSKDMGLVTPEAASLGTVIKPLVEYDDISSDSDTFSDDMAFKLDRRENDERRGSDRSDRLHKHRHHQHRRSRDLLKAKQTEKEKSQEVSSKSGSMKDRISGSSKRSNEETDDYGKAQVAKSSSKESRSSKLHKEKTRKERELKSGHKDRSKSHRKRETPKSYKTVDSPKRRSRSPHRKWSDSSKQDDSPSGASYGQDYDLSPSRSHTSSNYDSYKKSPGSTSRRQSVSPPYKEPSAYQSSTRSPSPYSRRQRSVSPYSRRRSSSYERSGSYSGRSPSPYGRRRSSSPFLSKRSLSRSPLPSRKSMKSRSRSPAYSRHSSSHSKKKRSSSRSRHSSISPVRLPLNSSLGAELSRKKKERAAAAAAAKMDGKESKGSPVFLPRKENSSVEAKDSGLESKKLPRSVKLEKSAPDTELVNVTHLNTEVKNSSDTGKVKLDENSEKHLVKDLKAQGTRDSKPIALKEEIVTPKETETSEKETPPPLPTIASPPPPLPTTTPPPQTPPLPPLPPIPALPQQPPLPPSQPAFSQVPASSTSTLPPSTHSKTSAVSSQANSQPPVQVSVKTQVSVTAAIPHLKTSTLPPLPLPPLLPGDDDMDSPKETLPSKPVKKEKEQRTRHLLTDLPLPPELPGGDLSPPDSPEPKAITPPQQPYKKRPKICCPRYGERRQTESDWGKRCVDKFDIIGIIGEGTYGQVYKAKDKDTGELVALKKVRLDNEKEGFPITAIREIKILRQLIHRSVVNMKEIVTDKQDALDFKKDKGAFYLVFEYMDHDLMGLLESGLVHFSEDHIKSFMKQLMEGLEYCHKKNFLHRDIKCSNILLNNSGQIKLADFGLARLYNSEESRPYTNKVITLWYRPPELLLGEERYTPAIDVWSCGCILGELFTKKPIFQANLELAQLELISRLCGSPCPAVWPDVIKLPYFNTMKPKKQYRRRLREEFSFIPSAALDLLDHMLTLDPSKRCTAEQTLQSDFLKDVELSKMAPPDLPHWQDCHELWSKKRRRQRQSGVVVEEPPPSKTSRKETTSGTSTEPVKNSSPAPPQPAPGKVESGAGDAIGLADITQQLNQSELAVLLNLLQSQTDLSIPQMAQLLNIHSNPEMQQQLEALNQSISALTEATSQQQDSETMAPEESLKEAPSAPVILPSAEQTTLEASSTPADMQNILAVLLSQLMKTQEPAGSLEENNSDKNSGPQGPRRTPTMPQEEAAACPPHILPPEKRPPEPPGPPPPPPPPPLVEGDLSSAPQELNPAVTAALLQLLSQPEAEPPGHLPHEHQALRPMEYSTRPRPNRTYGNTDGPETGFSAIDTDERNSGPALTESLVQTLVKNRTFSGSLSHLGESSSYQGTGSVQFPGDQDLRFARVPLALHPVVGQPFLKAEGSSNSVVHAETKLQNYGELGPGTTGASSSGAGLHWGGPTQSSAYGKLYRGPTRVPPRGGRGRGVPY
T1 sequence (O75909 whole entry partner): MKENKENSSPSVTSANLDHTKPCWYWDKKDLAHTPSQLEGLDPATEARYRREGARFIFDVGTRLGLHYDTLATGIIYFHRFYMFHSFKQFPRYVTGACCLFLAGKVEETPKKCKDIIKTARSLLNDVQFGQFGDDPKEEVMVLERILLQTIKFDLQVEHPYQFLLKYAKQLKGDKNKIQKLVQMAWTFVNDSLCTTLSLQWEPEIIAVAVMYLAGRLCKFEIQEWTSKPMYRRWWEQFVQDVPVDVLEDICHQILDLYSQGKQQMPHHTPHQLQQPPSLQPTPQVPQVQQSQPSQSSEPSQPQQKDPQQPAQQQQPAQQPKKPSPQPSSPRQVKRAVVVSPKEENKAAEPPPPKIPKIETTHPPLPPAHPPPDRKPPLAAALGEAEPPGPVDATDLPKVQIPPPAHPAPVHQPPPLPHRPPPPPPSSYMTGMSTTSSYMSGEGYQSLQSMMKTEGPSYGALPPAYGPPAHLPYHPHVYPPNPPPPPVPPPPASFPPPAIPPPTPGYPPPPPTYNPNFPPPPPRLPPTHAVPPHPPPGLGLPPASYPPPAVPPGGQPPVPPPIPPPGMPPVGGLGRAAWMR
Protocol: Kinase activity was assessed using the kinase assay kits from BPS Bioscience for CDK1, CDK9 and CDK12 with Kinase Glo MAX in duplicates. Compounds were tested at a single concentration of 1 μM for CDK1 and CDK9 activity, and in a dilution ranging from 0.64 nM to 50 μM for CDK12 activity. Chemiluminescence was read using the Neo Synergy BioTek plate reader.

`CN(C)C/C=C/C(=O)Nc1ccc(C(=O)N2CCC[C@@H](Nc3ncc(Cl)c(-c4c[nH]c5ccccc45)n3)C2)cc1` [THZ531] was tested, and the “MFI of cyclin KeGFP over mCherry” value (cyclin KeGFP) was 103.0 and 93.3 and 92.2 and 93.5, the “potency upon CUL4A or CUL4B downregulation (for SNS-032, THZ531 also DDB1 depletion)” value [1] was “remained unaffected” and the pIC50 (primary AML specimens; primary AML specimen 03H109) was 7.31. It also gave a pIC50 (primary AML specimens; primary AML specimen 04H055) of 7.34, a pIC50 (primary AML specimens; primary AML specimen 04H096) of 7.35 and a pIC50 (primary AML specimens; primary AML specimen 04H138) of 7.15. The pIC50 (primary AML specimens; primary AML specimen 05H113) was 7.15, the pIC50 (primary AML specimens; primary AML specimen 05H149) was 6.39 and the pIC50 (primary AML specimens; primary AML specimen 05H193) was 7.14. It also gave a pIC50 (primary AML specimens; primary AML specimen 06H088) of 7.30, a pIC50 (primary AML specimens; primary AML specimen 06H117) of 7.37 and a pIC50 (primary AML specimens; primary AML specimen 06H151) of 6.99. For the same compound, the pIC50 (primary AML specimens; primary AML specimen 07H003) was 7.31, the pIC50 (primary AML specimens; primary AML specimen 07H131) was 6.13 and the pIC50 (primary AML specimens; primary AML specimen 07H144) was 7.27. It also gave a pIC50 (primary AML specimens; primary AML specimen 07H155) of 6.90, a pIC50 (primary AML specimens; primary AML specimen 08H018) of 6.53 and a pIC50 (primary AML specimens; primary AML specimen 08H021) of 7.56. It also gave a pIC50 (primary AML specimens; primary AML specimen 08H056) of 6.77, a pIC50 (primary AML specimens; primary AML specimen 08H063) of 7.17 and a pIC50 (primary AML specimens; primary AML specimen 08H085) of 7.38. For the same compound, the pIC50 (primary AML specimens; primary AML specimen 08H108) was 7.31, the pIC50 (primary AML specimens; primary AML specimen 08H118) was 6.22 and the pIC50 (primary AML specimens; primary AML specimen 09H016) was 6.92. For the same compound, the pIC50 (primary AML specimens; primary AML specimen 09H070) was 6.81, the pIC50 (primary AML specimens; primary AML specimen 10H014) was 6.63 and the pIC50 (primary AML specimens; primary AML specimen 10H046) was 6.50. For the same compound, the pIC50 (primary AML specimens; primary AML specimen 10H107) was 6.79, the pIC50 (primary AML specimens; primary AML specimen 10H127) was 7.32 and the pIC50 (primary AML specimens; primary AML specimen 10H161) was 7.33. For the same compound, the pIC50 (primary AML specimens; primary AML specimen 10H174) was 6.84, the pIC50 (primary AML specimens; primary AML specimen 11H008) was 7.33 and the pIC50 (primary AML specimens; primary AML specimen 11H019) was 6.76. It also gave a pIC50 (primary AML specimens; primary AML specimen 11H170) of 6.10, a pIC50 (primary AML specimens; primary AML specimen 11H217) of 7.34 and a pIC50 (primary AML specimens; primary AML specimen 11H232) of 6.53. It also gave a pIC50 (primary AML specimens; primary AML specimen 12H033) of 6.90, a pIC50 (primary AML specimens; primary AML specimen 12H055) of 7.29 and a pIC50 (primary AML specimens; primary AML specimen 12H148) of 6.62. It also gave a pIC50 (primary AML specimens; primary AML specimen 13H053) of 6.80, a pIC50 (primary AML specimens; primary AML specimen 15H045) of 6.56 and a pIC50 (primary AML specimens; primary AML specimen 17H065) of 5.97. For the same compound, the “in vitro inhibition of CDK12/Cyclin K activity” value (CDK12/Cyclin K; Log10 (uM) 0.30103) was 95.76 and 74.16 and 142.36, the “in vitro inhibition of CDK12/Cyclin K activity” value (CDK12/Cyclin K; Log10 (uM) -1.09691) was 64.02 and 71.5 and 108.97 and the “in vitro inhibition of CDK12/Cyclin K activity” value (CDK12/Cyclin K; Log10 (uM) -1.79588) was 50.36 and 51.42 and 41.9. For the same compound, the “in vitro inhibition of CDK12/Cyclin K activity” value (CDK12/Cyclin K; Log10 (uM) -2.49485) was 37.5 and 37.15 and 28.34 and the pIC50 (CDK12/Cyclin K; read-out: IC50, in vitro inhibition of CDK12/Cyclin K activity) was 7.54.

— paper PMC12152147, “DDB1 engagement defines the selectivity of S656 analogs for cyclin K degradation over CDK inhibition” (EMBO Reports, 2025)
